Test results taken from PMC8000760, “Potential Effect of Pseudevernia furfuracea (L.) Zopf Extract and Metabolite Physodic Acid on Tumour Microenvironment Modulation in MCF-10A Cells” (Biomolecules, 2021).

Experiments:
[1] = test system: N-cadherin, fibronectin, α-SMA, Slug in BJ-5ta; assay: Western blot of mesenchymal markers in TGF-β-stimulated fibroblasts; assay type: cell-based; conditions: TGF-β-stimulated BJ-5ta, 48 and 72 h, time- and dose-dependent manner
Description: (§1) The MCF-10A and BJ-5ta cells were seeded and cultivated for 24 h in a complete medium. One day after seeding, 30 ng/mL of TGF-β was added and cultivated for 7 days (d). TGF-β was added to induce epithelial–mesenchymal transition in tested cell lines. Lichen extract P. furfuracea (L.) Zopf and its metabolite physodic acid were added at time 0 h and then incubated for 24, 48 and 72 h for various analyses, as described in Figure 1.
(§2) Proteins isolated from MCF-10A and BJ-5ta cell lysates were determined by the Pierce® BCA Protein Assay Kit (Thermo Scientific, Rockford, IL, United States), using bovine serum albumin (BSA) as the standard, and measured by an automated Cytation™ 3 Cell Imaging Multi-Mode Reader (Biotek) at a wavelength of 570 nm. Proteins were separated on SDS-PAA gel (12%) at 100 V for 2 h and then transferred to a polyvinylidene difluoride (PVDF) membrane using the iBlot dry blotting system (Thermo Scientific, Rockford, IL, United States). […] After incubation, the membrane was again washed in TBS-Tween (3 × 5 min), and the expression of the protein was detected using a chemiluminescent ECL substrate (Thermo Fisher Scientific) and MF-ChemiBIS 2.0 Imaging System (DNR BIO-Imaging Systems, Jerusalem, Israel). The detected band was then analysed densitometrically using the Image Studio Lite software (LI-COR Biosciences, Lincoln, NE, USA). […]

MCF-10A cells = assay: Flow cytometry cell cycle phase distribution; assay type: cell-based, human
Description: as §1
(§3) The MCF-10A cells (1 × 10^4/well) were seeded in Petri dishes and stimulated with […] TGF-β for 7 days. […] After detaching, using Trypsin/EDTA, cells were harvested and pelleted by centrifugation at 1200 rpm for 5 min. Pellet was re-suspended in PBS and divided for a particular analysis. Cells were stained prior to analyses with E-Cadherin Mouse mAb (Alexa Fluor 488 conjugate) or N-cadherin Rabbit mAb (Alexa Fluor 647 conjugate) (Cell Signalling) for 15 min at RT in the dark. For the cell cycle analyses, cells were re-suspended in staining solution (final concentration 0.1% Triton X-100, 0.5 mg/mL ribonuclease A and 0.025 mg/mL propidium iodide (PI)), and incubated in the dark at RT for 30 min. All samples were analysed using a FACS Calibur flow cytometer (Becton Dickinson, San Jose, CA, USA). The IgG isotype control checking was performed for every used antibody.

pSmad2/3 in BJ-5ta = assay: Western blot of phospho-Smad2/3 in TGF-β-stimulated fibroblasts; assay type: cell-based; conditions: TGF-β-stimulated BJ-5ta, time-dose manner
Description: as §1, §2

[2] = test system: E-cadherin in TGF-β-stimulated MCF-10A cells; assay: E-cadherin expression (Western blot, flow cytometry, immunofluorescence); assay type: cell-based, human; conditions: TGF-β-stimulated groups
Description: as §1
The MCF-10A cells (1 × 10^4/well) were seeded in Petri dishes and stimulated with […] TGF-β for 7 days. […] After detaching, using Trypsin/EDTA, cells were harvested and pelleted by centrifugation at 1200 rpm for 5 min. […] All samples were analysed using a FACS Calibur flow cytometer (Becton Dickinson, San Jose, CA, USA). […]
Proteins isolated from MCF-10A and BJ-5ta cell lysates were determined by the Pierce® BCA Protein Assay Kit (Thermo Scientific, Rockford, IL, United States), using bovine serum albumin (BSA) as the standard, and measured by an automated Cytation™ 3 Cell Imaging Multi-Mode Reader (Biotek) at a wavelength of 570 nm. […] After incubation, the membrane was again washed in TBS-Tween (3 × 5 min), and the expression of the protein was detected using a chemiluminescent ECL substrate (Thermo Fisher Scientific) and MF-ChemiBIS 2.0 Imaging System (DNR BIO-Imaging Systems, Jerusalem, Israel). […]

[3] = test system: N-cadherin in TGF-β-stimulated MCF-10A cells; assay: N-cadherin expression, flow cytometry; assay type: cell-based, human; conditions: IC10, 24, 48, 72 h, compared to TGF-β alone
Description: as §1, §3

[4] = test system: fibronectin in TGF-β-stimulated MCF-10A cells; assay: Fibronectin expression, Western blot; assay type: cell-based, human; conditions: IC10 and IC50, dose-dependent manner
Description: as §1, §2

E-cadherin in BJ-5ta = assay: Western blot of E-cadherin in TGF-β-stimulated fibroblasts; assay type: cell-based; conditions: TGF-β-stimulated BJ-5ta, 48 and 72 h
Description: as §1, §2

[5] = 24 h, IC10, in the presence of 30 ng/mL TGF-β
[6] = 24 h, treatment alone (IC10 of PSE/Phy, or TGF-β 30 ng/mL)
[7] = 48 h, IC10, in the presence of 30 ng/mL TGF-β
[8] = 48 h, treatment alone (IC10 of PSE/Phy, or TGF-β 30 ng/mL)
[9] = 72 h, IC10, in the presence of 30 ng/mL TGF-β
[10] = 72 h, treatment alone (IC10 of PSE/Phy, or TGF-β 30 ng/mL)

CCCCCC(=O)Cc1cc(O)cc2c1C(=O)Oc1cc(O)c(C(=O)O)c(CCCCC)c1O2 [Phy, physodic acid]
mesenchymal markers expression [1]: significantly decrease
G1 cell cycle phase distribution (MCF-10A cells; [5]): 73.45 ± 0.69
G2/M cell cycle phase distribution (MCF-10A cells; [5]): 13.25 ± 2.08
S cell cycle phase distribution (MCF-10A cells; [5]): 12.20 ± 2.69
Sub G0 cell cycle phase distribution (MCF-10A cells; [5]): 1.10 ± 0.07
G1 cell cycle phase distribution (MCF-10A cells; [6]): 73.25 ± 0.37
G2/M cell cycle phase distribution (MCF-10A cells; [6]): 13.85 ± 0.61
S cell cycle phase distribution (MCF-10A cells; [6]): 12.05 ± 0.86
Sub G0 cell cycle phase distribution (MCF-10A cells; [6]): 0.86 ± 0.12
G1 cell cycle phase distribution (MCF-10A cells; [7]): 89.05 ± 1.18^Δ
G2/M cell cycle phase distribution (MCF-10A cells; [7]): 5.78 ± 1.16
S cell cycle phase distribution (MCF-10A cells; [7]): 3.36 ± 0.27
Sub G0 cell cycle phase distribution (MCF-10A cells; [7]): 1.82 ± 0.24
G1 cell cycle phase distribution (MCF-10A cells; [8]): 88.15 ± 0.53
G2/M cell cycle phase distribution (MCF-10A cells; [8]): 5.06 ± 1.00
S cell cycle phase distribution (MCF-10A cells; [8]): 4.23 ± 0.48
Sub G0 cell cycle phase distribution (MCF-10A cells; [8]): 2.54 ± 0.04
G1 cell cycle phase distribution (MCF-10A cells; [9]): 89.75 ± 0.86^Δ
G2/M cell cycle phase distribution (MCF-10A cells; [9]): 4.34 ± 1.27^Δ
S cell cycle phase distribution (MCF-10A cells; [9]): 3.14 ± 0.52
Sub G0 cell cycle phase distribution (MCF-10A cells; [9]): 2.77 ± 0.94
G1 cell cycle phase distribution (MCF-10A cells; [10]): 88.50 ± 1.14
G2/M cell cycle phase distribution (MCF-10A cells; [10]): 3.99 ± 0.80
S cell cycle phase distribution (MCF-10A cells; [10]): 5.45 ± 2.26
Sub G0 cell cycle phase distribution (MCF-10A cells; [10]): 2.06 ± 0.35
cell cycle phase distribution versus control or TGF-β alone (MCF-10A cells; IC10, absence or presence of TGF-β 30 ng/mL, 24, 48 and 72 h): no significant differences
phosphorylation levels of Smad2 and Smad3 (pSmad2/3) (pSmad2/3 in BJ-5ta): decreased
restoration of E-cadherin [2]: did not observe a significant restoration
N-cadherin expression, flow cytometry [3]: significantly reduced
levels of fibronectin, Western blot [4]: downregulated
expression of epithelial marker E-cadherin (E-cadherin in BJ-5ta): did not significantly change
